A short description of the data set: Thermal stability of compound assessed as melting temperature at 10 uM. The data set is classed as physicochemical.
As for “H-RIQQIEQKIHHIEQRIQQIEQLLQLTVWGIKQLQARIL-OH”, the Tm was found to be 72 °C.

Regarding “H-RIQQIEQKIHHIEQRIQQIEQRIEAQQHLLQLTVWGIKQLQARIL-OH”, the Tm was found to be 74 °C.

As to “H-RIQQIEQKIHHIEQRIQQIEQRISGIVQQQNNLLRIEAQQHLLQLTVWGIKQLQARIL-OH”, the Tm came to 82 °C.

For the origin of these results see ChEMBL document CHEMBL4627250, “Suitable fusion of N-terminal heptad repeats to achieve covalently stabilized potent N-peptide inhibitors of HIV-1 infection” (Bioorg Med Chem, 2020).
